Read-outs that look alike come from different tables or passages of the source. Non-standard residues stand in square brackets, D forms with d. Residues, ends and D or L forms follow the SMILES beside them. N(4-Sulfamoylphenethyl)Gly = NS(=O)(=O)c1ccc(CCNCC(=O)O)cc1; Gly(N-piperonyl) = O=C(O)CNCc1ccc2c(c1)OCO2; Gly(N-CH2CH2OH) = O=C(O)CNCCO; Nlys = NCCCCNCC(=O)O
Columns and labels:
ubiquitin = ubiquitin (Homo sapiens, UniProt P0CG47); assay: pull-down of unlabeled ubiquitin by Tentagel-displayed peptide, probed with Texas Red-labeled anti-ubiquitin antibody; assay type: binding; details: semi-quantitative
Procedure: To study the behavior of the ubiquitin-targeted chimeric binding element in capture assays, the peptide was synthesized on Tentagel and employed in “pull-down” assays. Beads displaying NH2-[…], a control peptide NH2-[…], or no peptide at all, were incubated with the indicated concentration of unlabeled ubiquitin in the presence of a 1000-fold excess of E. coli proteins (FIG. 26B). After thorough washing, the beads were then probed with Texas Red-labeled anti-ubiquitin-labeled polyclonal antibodies to visualize the bound protein. […] In all cases, the level of fluorescence from the chimeric binding element-displaying beads was much higher than from either set of control beads (see FIG. 26C for a direct comparison).

His6Gal80 [1] = target: T1, His6Gal80 (Saccharomyces cerevisiae, UniProt P04387); assay: capturing dilute proteins with Tentagel-bound peptide; assay type: binding; details: peptide on Tentagel
T1 construct: His6 (N); made in house; host or cells: E. coli
T1 sequence (P04387 1-435): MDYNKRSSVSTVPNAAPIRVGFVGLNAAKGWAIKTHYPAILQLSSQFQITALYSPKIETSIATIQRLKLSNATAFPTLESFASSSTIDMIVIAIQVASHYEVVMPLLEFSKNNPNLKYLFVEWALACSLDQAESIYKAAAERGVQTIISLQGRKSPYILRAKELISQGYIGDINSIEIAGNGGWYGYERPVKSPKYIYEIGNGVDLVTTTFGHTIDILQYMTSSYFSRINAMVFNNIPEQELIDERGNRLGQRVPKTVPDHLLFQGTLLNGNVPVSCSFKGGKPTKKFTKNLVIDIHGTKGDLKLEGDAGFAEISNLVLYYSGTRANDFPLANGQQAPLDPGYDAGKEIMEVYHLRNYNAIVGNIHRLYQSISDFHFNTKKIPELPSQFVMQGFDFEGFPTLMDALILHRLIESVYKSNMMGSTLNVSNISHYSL
Procedure: Capturing Dilute Proteins. Approximately 0.014 g of Tentagel beads displaying Gal80 binding peptide was blocked with 10% milk overnight at 4° C. The beads were divided equally into 7 tubes and incubated with 500 μL of buffer containing various amounts of His6Gal80 protein (5 to 400 ng) for 2 hours at 4° C. After washing four times with TBST buffer and twice with PBS, gel loading dye was added directly to the beads and the amount of bound His6Gal80 was determined as described above. A second gel containing known amounts of pure His6Gal80 was analyzed simultaneously and was used as a standard to quantitate the amount of His6Gal80 retained on the beads.
Efficient capture of dilute proteins. In all of the above examples, the protein was loaded onto the peptide-coated bead at a relatively high concentration (300 nM) prior to dilution. Since the concentration of most proteins of interest in a biological sample will be lower, it was of interest to evaluate the ability of a Tentagel-bound peptide to capture a dimeric protein from more dilute solutions. […] After washing, the bound protein was detected by boiling the beads in denaturing loading buffer followed by SDS-PAGE/western, blot analysis of the resulting supernatant. […] Further dilution of the protein in this assay format exceeded the sensitivity of the western blot. […]

MBP-Mdm2 [2] = target: T2, MBP-Mdm2 (UniProt P0AEX9+Q00987); assay: isothermal titration calorimetry (ITC); assay type: binding, human
T2 construct: The domain of the human Mdm2 protein represented by residues 1-188 is a structurally characterized monomer; made in house; host or cells: E. coli BL21-RIL
T2 sequence (Q00987 whole entry, looked up, other chains not shown, the tested form may be a part): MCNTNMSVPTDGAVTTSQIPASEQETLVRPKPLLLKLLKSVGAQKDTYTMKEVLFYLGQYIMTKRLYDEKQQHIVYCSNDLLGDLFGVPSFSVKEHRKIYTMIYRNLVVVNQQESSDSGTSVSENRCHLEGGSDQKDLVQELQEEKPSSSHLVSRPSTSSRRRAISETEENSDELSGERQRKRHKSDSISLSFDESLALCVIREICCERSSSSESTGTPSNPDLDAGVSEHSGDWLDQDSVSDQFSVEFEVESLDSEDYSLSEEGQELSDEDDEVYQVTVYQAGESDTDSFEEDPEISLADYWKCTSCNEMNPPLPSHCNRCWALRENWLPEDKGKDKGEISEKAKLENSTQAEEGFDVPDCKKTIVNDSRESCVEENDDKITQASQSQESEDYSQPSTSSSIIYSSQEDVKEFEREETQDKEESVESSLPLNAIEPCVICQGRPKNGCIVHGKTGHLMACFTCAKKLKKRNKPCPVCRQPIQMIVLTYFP
Procedure: (§1) Isothermal titration calorimetry (ITC). ITC experiments were conducted on a MicroCal VP-ITC instrument. For the titration, 70 μM MBP-hmdm2 or 30 μM GST in PBS+10% DMSO was taken in the sample cell. To this, 15 μl aliquots of the peptoid solution in the same buffer were added from a computer-controlled 250 μl rotating syringe. The syringe was set at 400 rpm with intervals of 3 minutes between injections to attain baseline stabilization. The heat absorbed or released accompanying the titration was recorded as differential power (DP) by the instrument software. Experiments were carried out with C values between 1 and 400. The total heat recorded was then fitted via a non-linear least-squares minimization method. Titration of the ligand solution with the buffer alone gave the heats of dilution. Titration with MBP alone was recorded under identical conditions.

GST = target: T3, GST (Schistosoma japonicum, UniProt P08515); assay: isothermal titration calorimetry (ITC); assay type: binding; details: in solution; read-out: equilibrium dissociation constant, ITC
T3 construct: made in house; host or cells: E. coli BL21-RIL
T3 sequence (P08515 whole entry): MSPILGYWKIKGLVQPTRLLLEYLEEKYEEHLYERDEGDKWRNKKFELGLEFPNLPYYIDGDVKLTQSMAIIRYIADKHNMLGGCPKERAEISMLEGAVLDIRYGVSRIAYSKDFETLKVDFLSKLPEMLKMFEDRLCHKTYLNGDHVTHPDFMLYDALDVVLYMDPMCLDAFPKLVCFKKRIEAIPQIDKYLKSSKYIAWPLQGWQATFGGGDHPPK
Procedure: as §1

MBP = MBP (Escherichia coli, UniProt P0AEX9); assay: isothermal titration calorimetry (ITC), MBP alone; assay type: binding; details: in solution
Procedure: as §1

MBP-Mdm2 [3] = target: T2, MBP-Mdm2; assay type: binding, human
Procedure: Five milligrams of TentaGel beads (displaying the respective hit sequences, Nlys-Nbsa-Nlys-Nser-Nbsa-Npip-Nbsa-Npip-CONH2 and Nbsa-Nlys-Nbsa-Npip-Nlys-CONH2 or a random sequence Npip-Nser-Nbsa-Nall-Nlys-Npip-CONH2) were equilibrated in phosphate-buffered saline (PBS) for 60 minutes. The buffer was removed and the beads were blocked with 2% BSA for 60 minutes to saturate any non-specific binding sites. The beads were then washed with PBS (3 times), and incubated with 500 nM (unless indicated otherwise) of a Texas Red-labeled protein (MBP-MDM2 or GST) in 2% BSA (in 1×TBST buffer), in a 300 μL volume for 60 minutes. The beads were washed with TBST six times to remove any unbound protein and photographed under a fluorescence microscope. Studies that employed native (unlabeled) proteins were performed as follows. Ten milligrams of beads displaying the peptoid were exposed to 1 μM protein in the presence of 1000-fold excess E. coli lysate, 0.2% Tween-20 and 0.2 M NaCl in a total volume of 2 ml at RT for 2 hrs. The beads were washed three times with TBST (20 mM Tris buffered saline+0.1% Tween-20). Ten microliters of 2×SDS-PAGE loading dye was then added directly to these beads and they were boiled for 10 mins.
To probe the binding chemistry of chimeric binding ligand formula 2 on a solid support, which is more relevant to the issue of creating high affinity protein capture agents, TentaGel beads were prepared that display either chalcone formula 1 alone, the 10 mer peptoid NH2-Nlys-Npip-Nlys-Nser-Nlys-Nlys-Nlys-Nlys-Npip-Npip alone, or the chalcone-peptoid chimeric binding element of formula 2. In the experiment shown in FIG. 24D, the beads and the Texas Red-labeled proteins (100 nM) indicated in the figure were incubated under demanding buffer conditions (1M NaCl and 1% Tween-20 in the presence of a 100-fold excess of E. coli proteins), then washed thoroughly. Two populations of beads were then mixed in a 1:1 ratio and photographed under a fluorescence microscope to provide a direct comparison.
After thorough washing, the beads were photographed in the fluorescence microscope using identical settings in each case.

His6Gal80 [4] = target: T1, His6Gal80; assay: lysate experiment: specificity of capture from E. coli lysate (silver stain); assay type: binding; details: Gal80 5% of total protein, silver staining
Procedure: Lysate Experiment. E. coli lysate was prepared by growing BL21 cells to an OD600 of 0.8. Cells were lysed by sonication in PBS buffer. After sonication, triton X-100 was added to 1%. His6Gal80 was doped into the E. coli lysate (67 μg/mL) such that it constituted 5% of the total protein. Approximately 0.02 g of Tentagel beads on which the Gal80-binding peptide had been synthesized and deprotected were added to 300 μL of the E. coli lysate containing His6Gal80 and incubated for 2 hours at 4° C. The beads were washed four times for ten minutes each time at 4 with PBS buffer+1% triton X-100 at 150 mM NaCl at 4° C. and then twice with PBS buffer. GSTGal4 AD (activation domain) was pre-incubated with glutathione sepharose beads and then used as a positive control to pull-down His6Gal80 from the lysate under the same conditions. Gel loading dye was added directly to the beads, loaded onto a SDS polyacrylamide gel and analyzed by silver stain.
To address this point, the Gal80 bp/Gal80 pair was again employed. His6Gal80 was doped into an E. coli lysate such that Gal80 represented 5% of the total protein concentration. This solution was then incubated with the Tentagel-bound Gal80 bp followed by thorough washing to remove any unbound material. The composition of the proteins captured by the peptide was then addressed by SDS-PAGE followed by silver staining. […]

solubility observations = assay type: physicochemical

## CC(C)C[C@H](NC(=O)CNC(=O)[C@@H](N)Cc1c[nH]c2ccccc12)C(=O)N[C@@H](CCCNC(=N)N)C(=O)N[C@@H](C)C(=O)N[C@@H](CC(C)C)C(=O)N[C@@H](CCC(=O)O)C(=O)N[C@@H](CO)C(=O)N[C@@H](CCCNC(=N)N)C(=O)N[C@@H](Cc1c[nH]c2ccccc12)C(=O)N[C@@H](CC(=O)O)C(=O)N[C@@H](CCCNC(=N)N)C(=O)N[C@@H](Cc1ccc(O)cc1)C(=O)N[C@@H](Cc1ccc(O)cc1)C(=O)N[C@@H](Cc1ccccc1)C(=O)O (H-WGLRALESRWDRYYF-OH; C-terminus assumed)
ubiquitin
  functional dissociation constant of immobilized chimeric binding element: at least in the low nanomolar range

## CSCC[C@H](NC(=O)[C@H](CC(=O)O)NC(=O)[C@H](CCC(N)=O)NC(=O)[C@H](CC(=O)O)NC(=O)[C@@H](N)Cc1ccc(O)cc1)C(=O)N[C@@H](CCC(N)=O)C(=O)N[C@@H](CC(N)=O)C(=O)N[C@@H](CC(N)=O)C(=O)N[C@H](C(=O)N[C@@H](Cc1ccccc1)C(=O)N[C@@H](CC(=O)O)C(=O)N[C@@H](CC(=O)O)C(=O)N[C@@H](CC(C)C)C(=O)N[C@@H](Cc1ccccc1)C(=O)N[C@@H](Cc1c[nH]c2ccccc12)C(=O)N[C@@H](CCCCN)C(=O)N[C@@H](CCC(=O)O)C(=O)NCC(=O)N[C@@H](Cc1c[nH]cn1)C(=O)N[C@@H](CCCNC(=N)N)C(=O)O)[C@@H](C)O [Ga180bp] (H-YDQDMQNNTFDDLFWKEGHR-OH; N-terminus and C-terminus assumed)
His6Gal80 [1]
  dissociation constant of immobilized peptide for Gal80 dimer: sub-nanomolar

## NCCCCNCC(=O)N(CC(=O)N(CCCCN)CC(=O)N(CCO)CC(=O)N(CCCCN)CC(=O)N(CCCCN)CC(=O)N(CCCCN)CC(=O)N(CCCCN)CC(=O)N(CC(=O)N(CC(N)=O)Cc1ccc2c(c1)OCO2)Cc1ccc2c(c1)OCO2)Cc1ccc2c(c1)OCO2 [NH2-Nlys-Npip-Nlys-Nser-Nlys-Nlys-Nlys-Nlys-Npip-Npip] (H-[Nlys][Gly(N-piperonyl)][Nlys][Gly(N-CH2CH2OH)][Nlys][Nlys][Nlys][Nlys][Gly(N-piperonyl)][Gly(N-piperonyl)]-NH2; N-terminus and C-terminus assumed)
MBP-Mdm2 [2]
  Kd: 378 µM

## NCCCCN(CC(N)=O)C(=O)CN(Cc1ccc2c(c1)OCO2)C(=O)CN(CCc1ccc(S(N)(=O)=O)cc1)C(=O)CN(CCCCN)C(=O)CNCCc1ccc(S(N)(=O)=O)cc1 [Nbsa-Nlys-Nbsa-Npip-Nlys-CONH2] (H-[N(4-Sulfamoylphenethyl)Gly][Nlys][N(4-Sulfamoylphenethyl)Gly][Gly(N-piperonyl)][Nlys]-NH2)
GST
  Kd: 62 µM

## NCCCCNCC(=O)N(CCc1ccc(S(N)(=O)=O)cc1)CC(=O)N(CCCCN)CC(=O)N(CCO)CC(=O)N(CCc1ccc(S(N)(=O)=O)cc1)CC(=O)N(CC(=O)N(CCc1ccc(S(N)(=O)=O)cc1)CC(=O)N(CC(N)=O)Cc1ccc2c(c1)OCO2)Cc1ccc2c(c1)OCO2 [Nlys-Nbsa-Nlys-Nser-Nbsa-Npip-Nbsa-Npip] (H-[Nlys][N(4-Sulfamoylphenethyl)Gly][Nlys][Gly(N-CH2CH2OH)][N(4-Sulfamoylphenethyl)Gly][Gly(N-piperonyl)][N(4-Sulfamoylphenethyl)Gly][Gly(N-piperonyl)]-NH2)
MBP
  Kd: > 1000 µM
MBP-Mdm2 [2]
  Kd: 37 µM
MBP-Mdm2 [3]; native protein 1 μM, 1000-fold excess E. coli proteins, Western blot
  MBP-Mdm2 protein retained by immobilized peptoid: about 10%

## DLQRDTNKGFHEMFDWDYQN [Ga180bpscram]
His6Gal80 [4]
  proteins retained from Gal80-doped E. coli lysate: No detectable proteins were retained

## NH2-Lys(Chalcone)-Nlys-Npip-Nlys-Nser-Nlys-Nlys-Nlys-Nlys-Npip-Npip [formula 2]
MBP
  Kd: > 6000 µM
MBP-Mdm2 [2]; in solution, read-out: equilibrium dissociation constant (KD), ITC
  Kd: 1.3 µM
MBP-Mdm2 [2]; solution, ITC
  improvement in affinity relative to parent compound formula 1: at least 170 fold
MBP-Mdm2 [3]; 100 nM protein, 1M NaCl, 1% Tween-20, 100-fold excess E. coli proteins
  solid phase MBP-Mdm2 affinity relative to components: higher affinity for Mdm2 than does either individual component of the chimera
MBP-Mdm2 [3]; 150 mM NaCl, 0.1% detergent, 100-fold excess E. coli proteins
  lowest protein concentration at which capture of Mdm2 was apparent: 10 nM

## Nmba-Nbsa-Nleu-Nlys-Npip-Nmba-Nleu-Nleu [random peptoid, reference compound]
MBP-Mdm2 [3]; 1000-fold excess E. coli proteins, Western blot
  native MBP-Mdm2 retained: No detectable MBP-Mdm2 protein was retained

## PREbp: Pre1 binding peptide isolated by phage display, free synthetic peptide before six polar amino acids were added (SHSTARGEQERAAVYLWFTYDHRSER)
Solubility observations
  solubility: insoluble
